# Experimental data: patent publication US9451774B2, “Paddy rice seed treated by herbicidal composition and method for controlling weed” (MITSUI CHEMICALS AGRO, INC., priority 2013, dated 2016)
# Experiments:
# [1] = system: Paddy rice (variety: Nipponbare); assay: Test Example 1: pot test, growth inhibition (chemical damage) of the paddy rice; type: in vivo; details: 30 days after sowing, dosage a.i. g per 1 kg of seeds: Pyrazolate 150, Compound (I) 37.5, Thenylchlor 0.63
# From the text: (§1) In 100 cm^2 of a pot was filled a paddy field soil, and after paddling, seeds of Monochoria vaginalis and Lindernia procumbens were sown and mixed into the surface layer of the soil. Paddy rice seeds (variety: Nipponbare) sprouted into a pigeon breast shape were dust-coated with a predetermined amount of wettable powder each prepared according to Preparation examples 1, 2 and 7, and were sown onto the surface of the soil or into the soil (depth: 1 cm) at an amount of 10 grains/pot. After the sowing, water was introduced quietly and flooded up to 1 cm. After 30 days from the sowing, a growth inhibition rate was judged according to the following judgement criteria.
# Lindernia procumbens [2] = assay: Test Example 1: pot test, herbicide-treated paddy rice seed, growth inhibition; type: in vivo; details: 30 days after sowing, dosage a.i. g per 1 kg of seeds: Pyrazolate 150, Compound (I) 37.5, Thenylchlor 0.63
# From the text: as §1
# Monochoria vaginalis [3] = assay: as above; type: in vivo; details: 30 days after sowing, dosage a.i. g per 1 kg of seeds: Pyrazolate 150, Compound (I) 37.5, Thenylchlor 0.63
# From the text: as §1
# Scirpus juncoides Roxb. [4] = assay: Test Example 6: pot test, herbicide-treated seed, growth inhibition; type: in vivo; details: 20 days after sowing, dosage a.i. g per 1 kg of seeds: Pyrimisulfan 0.5, Pyriminobac-methyl 1.5, Butachlor 1.25
# From the text: (§3) In 100 cm^2 of a pot was filled a paddy field soil, and after paddling, seeds of Echinochloa oryzicola and Scirpus juncoides Roxb. were sown and mixed into the surface layer of the soil. Paddy rice seeds (variety: Nipponbare) sprouted into a pigeon breast shape were dust-coated with a predetermined amount of wettable powder each prepared according to Preparation examples 5, 6 and 9, and were sown onto the surface of the soil or into the soil (depth: 1 cm) at an amount of 10 grains/pot. After the sowing, water was introduced quietly and flooded up to 1 cm. After 20 days from the sowing, a growth inhibition rate was judged according to the above-mentioned judgement criteria.
# [5] = system: Paddy rice (variety: Koshihikari); assay: Test Example 3: pot test, iron powder-coated seed, growth inhibition of the paddy rice; type: in vivo; details: surface sowing, 22 days after sowing, dosage a.i. g per 1 kg of seeds: Pyrimisulfan 0.5, Pyriminobac-methyl 1.5
# Procedure: (§2) Also, paddy rice seeds (variety: Koshihikari) dipped in 20° C. of water for 2 days were dust-coated with a mixture of iron powder and calcined gypsum (a mixing ratio of 10:1) with an amount of 100 g per 1 kg of the seeds (dried unhulled rice) to prepare iron powder-coated seeds.
# Scirpus juncoides Roxb. [6] = assay: Test Example 3: pot test, iron powder-coated herbicide-treated seed, growth inhibition; type: in vivo; details: surface sowing, 22 days after sowing, dosage a.i. g per 1 kg of seeds: Pyrimisulfan 0.5, Pyriminobac-methyl 1.5
# Procedure: as §2
# Echinochloa oryzicola [7] = assay: as above; type: in vivo; details: surface sowing, 22 days after sowing, dosage a.i. g per 1 kg of seeds: Pyrimisulfan 0.5, Pyriminobac-methyl 1.5
# Procedure: as §2
# Echinochloa oryzicola [8] = assay: Test Example 6: pot test, herbicide-treated seed, growth inhibition; type: in vivo; details: 20 days after sowing, dosage a.i. g per 1 kg of seeds: Pyrimisulfan 0.5, Pyriminobac-methyl 1.5, Butachlor 1.25
# From the text: as §3
# [9] = system: Paddy rice (variety: Nipponbare); assay: Test Example 6: pot test, growth inhibition of the paddy rice; type: in vivo; details: 20 days after sowing, dosage a.i. g per 1 kg of seeds: Pyrimisulfan 0.5, Pyriminobac-methyl 1.5, Butachlor 1.25
# From the text: as §3
# Lindernia procumbens [10] = assay: Test Example 5: pot test, herbicide-treated seed, growth inhibition; type: in vivo; details: 20 days after sowing, dosage a.i. g per 1 kg of seeds: Sulcotrione 1.0, Imazosulfuron 1.0, Oxadiargyl 0.15
# From the text: (§4) In 100 cm^2 of a pot was filled a paddy field soil, and after paddling, seeds of Lindernia procumbens and Scirpus juncoides Roxb. were sown and mixed into the surface layer of the soil. Paddy rice seeds (variety: Nipponbare) sprouted into a pigeon breast shape were dust-coated with a predetermined amount of wettable powder each prepared according to Preparation examples 3, 4 and 8, and were sown onto the surface of the soil or into the soil (depth: 1 cm) at an amount of 10 grains/pot. After the sowing, water was introduced quietly and flooded up to 1 cm. After 20 days from the sowing, a growth inhibition rate was judged according to the following judgement criteria.
# [11] = system: Paddy rice (variety: Koshihikari); assay: Test Example 2: pot test, iron powder-coated seed, growth inhibition of the paddy rice; type: in vivo; details: surface sowing, 21 days after sowing, dosage a.i. g per 1 kg of seeds: Pyrazolate 150, Compound (I) 38, Sulcotrione 1.0, Imazosulfuron 1.0
# Procedure: as §2
# [12] = system: Paddy rice (variety: Nipponbare); assay: Test Example 5: pot test, growth inhibition of the paddy rice; type: in vivo; details: 20 days after sowing, dosage a.i. g per 1 kg of seeds: Sulcotrione 1.0, Imazosulfuron 1.0, Oxadiargyl 0.15
# From the text: as §4
# Lindernia procumbens [13] = assay: Test Example 2: pot test, iron powder-coated herbicide-treated seed, growth inhibition; type: in vivo; details: surface sowing, 21 days after sowing, dosage a.i. g per 1 kg of seeds: Pyrazolate 150, Compound (I) 38, Sulcotrione 1.0, Imazosulfuron 1.0
# Procedure: as §2
# Monochoria vaginalis [14] = assay: as above; type: in vivo; details: surface sowing, 21 days after sowing, dosage a.i. g per 1 kg of seeds: Pyrazolate 150, Compound (I) 38, Sulcotrione 1.0, Imazosulfuron 1.0
# Procedure: as §2
# Scirpus juncoides Roxb. [15] = assay: Test Example 5: pot test, herbicide-treated seed, growth inhibition; type: in vivo; details: 20 days after sowing, dosage a.i. g per 1 kg of seeds: Sulcotrione 1.0, Imazosulfuron 1.0, Oxadiargyl 0.15
# From the text: as §4
# Echinochloa oryzicola [16] = assay: Test Example 7: pot test, seed dust-coated with COMMAND3ME, growth inhibition; type: in vivo; details: Surface sowing; 21 days after sowing; dosage 2.5 a.i. g per 1 kg of seeds (as COMMAND3ME)
# From the text: In 100 cm^2 of a pot was filled a paddy field soil, and after paddling, seeds of Echinochloa oryzicola was sown and mixed into the surface layer of the soil. Paddy rice seeds (variety: Nipponbare) sprouted into a pigeon breast shape were dust-coated with a predetermined amount of COMMAND3ME™ (clomazone: 31.4%, available from FMC Corporation), and were sown onto the surface of the soil at an amount of 10 grains/pot. After the sowing, water was introduced quietly and flooded up to 1 cm. After 21 days from the sowing, a growth inhibition rate was judged according to the above-mentioned judgement criteria.
# [17] = system: paddy rice varieties Habataki, Takanari, Momiroman, Mizuhochikara, Ruriaoba and Odorokimochi; details: Japanese Journal of Crop Science 79 (Extra 1); cited from earlier work
# Lindernia procumbens [18] = assay: Test Example 10: pot test, seed treated with herbicide with or without dymron, growth inhibition; type: in vivo; details: Surface sowing; 20 days after sowing; dosage a.i. g per 1 kg of seeds: Pyrimisulfan + Dymron 1 + 40, Pyrimisulfan 1
# From the text: as §1, with “5” for “1, 2”, “11,” for “7,”, “soil” for “soil or into the soil (depth: 1 cm)”, “20” for “30”, “above-mentioned” for “following”
# Monochoria vaginalis [19] = assay: as above; type: in vivo; details: Surface sowing; 20 days after sowing; dosage a.i. g per 1 kg of seeds: Pyrimisulfan + Dymron 1 + 40, Pyrimisulfan 1
# From the text: as §1, with “5” for “1, 2”, “11,” for “7,”, “soil” for “soil or into the soil (depth: 1 cm)”, “20” for “30”, “above-mentioned” for “following”
# [20] = Surface sowing of treated rice seed
compound,measurement,setting,value
"COc1ccsc1CN(C(=O)CCl)c1c(C)cccc1C [Thenylchlor, thenylchlor]","Growth inhibition rate, Paddy rice",[1]; Sowing into soil (depth 1 cm),9 (Growth inhibition rate of 82 to 90%)
same,"Growth inhibition rate, Paddy rice",[1]; Surface sowing,6 (Growth inhibition rate of 55 to 63%)
same,"Growth inhibition rate, Lindernia procumbens",Lindernia procumbens [2]; Sowing into soil (depth 1 cm),8 (Growth inhibition rate of 73 to 81%)
same,"Growth inhibition rate, Lindernia procumbens",Lindernia procumbens [2]; [20],9 (Growth inhibition rate of 82 to 90%)
same,"Growth inhibition rate, Monochoria vaginalis",Monochoria vaginalis [3]; Sowing into soil (depth 1 cm),6 (Growth inhibition rate of 55 to 63%)
same,"Growth inhibition rate, Monochoria vaginalis",Monochoria vaginalis [3]; [20],7 (Growth inhibition rate of 64 to 72%)
"CO/N=C(/C)c1cccc(Oc2nc(OC)cc(OC)n2)c1C(=O)OC [Pyriminobac-methyl, pyriminobac-methyl]","Growth inhibition rate, Scirpus juncoides Roxb.",Scirpus juncoides Roxb. [4]; Sowing into soil (depth 1 cm),0 (Growth inhibition rate of 0 to 9%)
same,"Growth inhibition rate, Scirpus juncoides Roxb.",Scirpus juncoides Roxb. [4]; Surface sowing,0 (Growth inhibition rate of 0 to 9%)
same,"Growth inhibition rate, Paddy rice",[5],0 (Growth inhibition rate of 0 to 9%)
same,"Growth inhibition rate, Scirpus juncoides Roxb.",Scirpus juncoides Roxb. [6],0 (Growth inhibition rate of 0 to 9%)
same,"Growth inhibition rate, Echinochloa oryzicola",Echinochloa oryzicola [7],10 (Growth inhibition rate of 91 to 100%)
same,"Growth inhibition rate, Echinochloa oryzicola",Echinochloa oryzicola [8]; Sowing into soil (depth 1 cm),10 (Growth inhibition rate of 91 to 100%)
same,"Growth inhibition rate, Echinochloa oryzicola",Echinochloa oryzicola [8]; Surface sowing,10 (Growth inhibition rate of 91 to 100%)
same,"Growth inhibition rate, Paddy rice",[9]; Sowing into soil (depth 1 cm),3 (Growth inhibition rate of 28 to 36%)
same,"Growth inhibition rate, Paddy rice",[9]; Surface sowing,0 (Growth inhibition rate of 0 to 9%)
"CS(=O)(=O)c1ccc(C(=O)C2C(=O)CCCC2=O)c(Cl)c1 [Sulcotrione, sulcotrione]","Growth inhibition rate, Lindernia procumbens",Lindernia procumbens [10]; Sowing into soil (depth 1 cm),10 (Growth inhibition rate of 91 to 100%)
same,"Growth inhibition rate, Lindernia procumbens",Lindernia procumbens [10]; Surface sowing,10 (Growth inhibition rate of 91 to 100%)
same,"Growth inhibition rate, Paddy rice",[11],0 (Growth inhibition rate of 0 to 9%)
same,"Growth inhibition rate, Paddy rice",[12]; Sowing into soil (depth 1 cm),3 (Growth inhibition rate of 28 to 36%)
same,"Growth inhibition rate, Paddy rice",[12]; Surface sowing,0 (Growth inhibition rate of 0 to 9%)
same,"Growth inhibition rate, Lindernia procumbens",Lindernia procumbens [13],10 (Growth inhibition rate of 91 to 100%)
same,"Growth inhibition rate, Monochoria vaginalis",Monochoria vaginalis [14],10 (Growth inhibition rate of 91 to 100%)
same,"Growth inhibition rate, Scirpus juncoides Roxb.",Scirpus juncoides Roxb. [15]; Sowing into soil (depth 1 cm),8 (Growth inhibition rate of 73 to 81%)
same,"Growth inhibition rate, Scirpus juncoides Roxb.",Scirpus juncoides Roxb. [15]; Surface sowing,9 (Growth inhibition rate of 82 to 90%)
"CC1(C)CON(Cc2ccccc2Cl)C1=O [Clomazone, clomazone]","Growth inhibition rate, Echinochloa oryzicola",Echinochloa oryzicola [16],9 (Growth inhibition rate of 82 to 90%)
CS(=O)(=O)c1ccc(C(=O)C2C(=O)CCCC2=O)c([N+](=O)[O-])c1 [mesotrione],Sensitivity of paddy rice variety to the herbicide,[17],show sensitivity
"COCc1cccc(C(O)c2nc(OC)cc(OC)n2)c1NS(=O)(=O)C(F)F (stereo not shown) [Pyrimisulfan, pyrimisulfan]","Growth inhibition rate, Scirpus juncoides Roxb.",Scirpus juncoides Roxb. [4]; Sowing into soil (depth 1 cm),10 (Growth inhibition rate of 91 to 100%)
same,"Growth inhibition rate, Scirpus juncoides Roxb.",Scirpus juncoides Roxb. [4]; Surface sowing,10 (Growth inhibition rate of 91 to 100%)
same,"Growth inhibition rate, Scirpus juncoides Roxb.",Scirpus juncoides Roxb. [6],10 (Growth inhibition rate of 91 to 100%)
same,"Growth inhibition rate, Echinochloa oryzicola",Echinochloa oryzicola [7],10 (Growth inhibition rate of 91 to 100%)
same,"Growth inhibition rate, Lindernia procumbens",Lindernia procumbens [18],10 (Growth inhibition rate of 91 to 100%)
same,"Growth inhibition rate, Monochoria vaginalis",Monochoria vaginalis [19],10 (Growth inhibition rate of 91 to 100%)
same,"Growth inhibition rate, Echinochloa oryzicola",Echinochloa oryzicola [8]; Sowing into soil (depth 1 cm),8 (Growth inhibition rate of 73 to 81%)
same,"Growth inhibition rate, Echinochloa oryzicola",Echinochloa oryzicola [8]; Surface sowing,10 (Growth inhibition rate of 91 to 100%)
"COc1cc(OC)nc(NC(=O)NS(=O)(=O)c2c(Cl)nc3ccccn23)n1 [Imazosulfuron, imazosulfuron]","Growth inhibition rate, Lindernia procumbens",Lindernia procumbens [10]; Sowing into soil (depth 1 cm),10 (Growth inhibition rate of 91 to 100%)
same,"Growth inhibition rate, Lindernia procumbens",Lindernia procumbens [10]; Surface sowing,10 (Growth inhibition rate of 91 to 100%)
same,"Growth inhibition rate, Lindernia procumbens",Lindernia procumbens [13],10 (Growth inhibition rate of 91 to 100%)
same,"Growth inhibition rate, Monochoria vaginalis",Monochoria vaginalis [14],10 (Growth inhibition rate of 91 to 100%)
same,"Growth inhibition rate, Scirpus juncoides Roxb.",Scirpus juncoides Roxb. [15]; Sowing into soil (depth 1 cm),9 (Growth inhibition rate of 82 to 90%)
same,"Growth inhibition rate, Scirpus juncoides Roxb.",Scirpus juncoides Roxb. [15]; Surface sowing,10 (Growth inhibition rate of 91 to 100%)
oxadiargyl,"Growth inhibition rate, Lindernia procumbens",Lindernia procumbens [10]; Sowing into soil (depth 1 cm),10 (Growth inhibition rate of 91 to 100%)
same,"Growth inhibition rate, Lindernia procumbens",Lindernia procumbens [10]; Surface sowing,10 (Growth inhibition rate of 91 to 100%)
same,"Growth inhibition rate, Scirpus juncoides Roxb.",Scirpus juncoides Roxb. [15]; Sowing into soil (depth 1 cm),1 (Growth inhibition rate of 10 to 18%)
same,"Growth inhibition rate, Scirpus juncoides Roxb.",Scirpus juncoides Roxb. [15]; Surface sowing,2 (Growth inhibition rate of 19 to 27%)
CS(=O)(=O)c1ccc(C(=O)C2=C(Sc3ccccc3)C3CCC(C3)C2=O)c(Cl)c1 (stereo not shown) [benzobicyclon],Sensitivity of paddy rice variety to the herbicide,[17],show sensitivity
"Cc1cccc(C2CC2)c1Oc1nnc(Cl)cc1OC(=O)N1CCOCC1 [Compound (I), 6-chloro-3-(2-cyclopropyl-6-methylphenoxy)pyridazin-4-yl morpholin-4-carboxylate]","Growth inhibition rate, Paddy rice",[11],0 (Growth inhibition rate of 0 to 9%)
same,"Growth inhibition rate, Paddy rice",[1]; Sowing into soil (depth 1 cm),5 (Growth inhibition rate of 46 to 54%)
same,"Growth inhibition rate, Paddy rice",[1]; Surface sowing,0 (Growth inhibition rate of 0 to 9%)
same,"Growth inhibition rate, Lindernia procumbens",Lindernia procumbens [13],10 (Growth inhibition rate of 91 to 100%)
same,"Growth inhibition rate, Monochoria vaginalis",Monochoria vaginalis [14],10 (Growth inhibition rate of 91 to 100%)
same,"Growth inhibition rate, Lindernia procumbens",Lindernia procumbens [2]; Sowing into soil (depth 1 cm),8 (Growth inhibition rate of 73 to 81%)
same,"Growth inhibition rate, Lindernia procumbens",Lindernia procumbens [2]; [20],10 (Growth inhibition rate of 91 to 100%)
same,"Growth inhibition rate, Monochoria vaginalis",Monochoria vaginalis [3]; Sowing into soil (depth 1 cm),9 (Growth inhibition rate of 82 to 90%)
same,"Growth inhibition rate, Monochoria vaginalis",Monochoria vaginalis [3]; [20],10 (Growth inhibition rate of 91 to 100%)
"CCCCOCN(C(=O)CCl)c1c(CC)cccc1CC [Butachlor, butachlor]","Growth inhibition rate, Scirpus juncoides Roxb.",Scirpus juncoides Roxb. [4]; Sowing into soil (depth 1 cm),0 (Growth inhibition rate of 0 to 9%)
same,"Growth inhibition rate, Scirpus juncoides Roxb.",Scirpus juncoides Roxb. [4]; Surface sowing,0 (Growth inhibition rate of 0 to 9%)
same,"Growth inhibition rate, Echinochloa oryzicola",Echinochloa oryzicola [8]; Sowing into soil (depth 1 cm),5 (Growth inhibition rate of 46 to 54%)
same,"Growth inhibition rate, Echinochloa oryzicola",Echinochloa oryzicola [8]; Surface sowing,7 (Growth inhibition rate of 64 to 72%)
